Laboratory results from patent US8101368B2, “Quantitation of cellular DNA and cell numbers using element labeling” (DVS Sciences Inc., priority 2006, dated 2012).

Tests used:
[1] = test system: KG-1a cells; experiment: Viability with trypan blue of cells cultured in Pd-supplemented media; assay type: cell-based; conditions: 500 ppb Pd in growth media, 72 hours
Protocol: (§1) The experiment was set up to investigate if metals passively accumulated by cells could be indicative of cell number and cell type. For this purpose two different leukemia cell lines were cultured for 72 hours in growth media supplemented with very low amounts of rare earth metals: 100 ppb Rh was added to MBA-1 cells, and 500 ppb Pd was added to KG-1a cells which express the cell surface marker. During the three days of cell culture, aliquots of cells were tested for viability with trypan blue. […] Cells were collected by centrifugation (1200 rpm, 10 minutes), washed once in PBS/10% FBS and counted in a hemocytometer. Serial dilutions were prepared to give 1×10^6, 0.5×10^6, 1×10^5, 1×10^4, 1×10^3, and 1×10^2 KG-1a cells in a population of MBA-1 cells (1×10^6) per tube in triplicates (Table 1). In this example Pd will reflect the number of KG-1a cells and the presence of surface marker CD34 will specify the cell type, while MBA-1 cells are marked by Rh. Immunolabeling was carried out by adding anti-CD34 antibodies to tubes containing decreasing amounts of live KG-1a cells and incubating for 45 minutes on ice. Negative control tubes were reacted with the IgG1 isotype control immunoglobulins. After three low speed centrifugation washes with PBS/10% FBS all samples were incubated with biotinylated anti-mouse antibodies. […]

[2] = test system: MBA-1 cells; experiment: Viability with trypan blue of cells cultured in Rh-supplemented media; assay type: cell-based; conditions: 100 ppb Rh in growth media, 72 hours
Protocol: as §1

[3] = test system: DNA; conditions: rhodium/base pair ratios of 2:1; cited from earlier work
[4] = test system: MBA-1 cells; experiment: Binding of increasing concentrations of Rh(III) intercalator to fixed/permeabilized cells, ICP-MS; assay type: cell-based; conditions: 2.5 nanoM to 250 microM, 45 minutes, 1×10^6 fixed/permeabilized cells; linear response
Protocol: Binding of an intercalator to DNA is governed by the law of mass action. Assuming that a mammalian cell in G1 phase has 3.3×10^9 DNA base pairs of which only 10-70% are free from protein interaction (nucleosomes) and available for binding with the intercalator (one molecule per two base pairs at saturation), the number of molecules of dye needed is approximately 1-10×10^8. Thus for [Rh(phi)2bpy]Cl3, with 671 MW, 1 ml of 200 uM solution should be 100-fold excess of intercalator over DNA binding sites for 1×10^6 cells. The binding of various amounts of the Rh(III) intercalator with cultured cells was assessed. MBA-1 cells were fixed in 3.7% formaldehyde/PBS for 15 minutes, followed by permeabilization with 0.3% TRITON™ X-100/PBS; washed once with PBS and incubated for 45 minutes with 1 ml of increasing concentrations of [Rh(phi)2bpy]Cl3 from 2.5 nanoM to 250 microM. Each sample contained 1×10^6 cells, run in triplicates. Following washing, the cell pellets were treated with concentrated HCl, mixed with an equal volume of 1 ppb Ir internal standard, and analyzed in solution by ICP-MS.

[5] = test system: MBA-1 cells
Protocol: Reactivity of the Rh(III) metallointercalator with fixed and fixed/permeabilized versus live cells was also examined. Equal amounts of MBA-1 cells (1×10^6) were either fixed/permeabilized as above, fixed in 3.7% formaldehyde alone or left untreated (live cells). After two washes in PBS the cells were incubated with 200 uM [Rh(phi)2bpy]Cl3 for 30 minutes; washed three more times and dissolved in HCl.

[6] = test system: K562 cells; experiment: Cell cycle synchronization checked by propidium iodide flow cytometry; assay type: cell-based
Protocol: Cells were synchronized in G1/S and G2/M phases of the cell cycle using a DNA synthesis inhibitor, thymidine, followed by a mitotic inhibitor, nocodazole. The DNA content of the G0/G1 phase is centered at 2n. Treatment with double thymidine results in a G1/S-phase arrested cell population with approximately […]. Nocodazole addition following a single thymidine treatment arrests cells in the G2/M stage with 4n DNA content. K562 cells were treated with 2 mM thymidine added to culture medium for 17 hours. The cells were then washed and incubated in fresh media for 9 hours. At the end of this rest period the culture was split into two flasks—one received the second dose of 2 mM thymidine (double thymidine block) to arrest cells at G1/S; the other—0.2 ug/ml nocodazole (single thymidine-nocodazole block) to arrest cells at the M phase. The inhibitors were left in culture media for 17 hours. […] After several washes the cells were digested in concentrated HCl and analyzed by ICP-MS. […] Treatment of stained cells with enzymes shifts the detected Rh values due to enhanced binding of metallointercalator to naked DNA. […] In the case of RNAse A treatment—degradation of small RNA molecules bound to DNA such as siRNA that may block interaction of intercalator and DNA may lead to higher detected Rh values.

[Pd] [Pd, palladium]
Cell death due to presence of metal in media [1]: No excessive cell death

[Rh] [Rh, rhodium]
Cell death due to presence of metal in media [2]: No excessive cell death

[Cl-].[Cl-].[Cl-].[NH-]c1c([NH-])c2ccccc2c2ccccc12.[NH-]c1c([NH-])c2ccccc2c2ccccc12.[Rh].c1ccc(-c2ccccn2)nc1 [[Rh(phi)2bpy]Cl3]
Sequence dependence of binding to DNA [3]: sequence neutral and random
Saturation of DNA binding (normalized Rh signal response) [4]: without reaching a saturation limit
Membrane permeability in live cells [5]: membrane impermeable

COC(=O)Nc1nc2ccc(C(=O)c3cccs3)cc2[nH]1 [nocodazole]
Cell cycle phase after block ([6]; single thymidine-nocodazole block, 0.2 ug/ml nocodazole, 17 hours): practically all cells were in M phase

Cc1cn([C@H]2C[C@H](O)[C@@H](CO)O2)c(=O)[nH]c1=O [thymidine]
Cell cycle phase after block ([6]; double thymidine block, 2 mM, 17 hours each): majority of cells were in G1/S
